Experimental data published in patent US20200346957A1, “BIOFILM […] TO MICROBIAL DESTRUCTION” (DRIPPING WET WATER, INC., priority 2019, published 2020).

System: biofilm within an infected cut
Test: Chlorine dioxide disrupts biofilm within an infected cut (Example 4)
Format: in vivo
Conditions: retreated every 12 hours, after 36 hours
Protocol: FIGS. 3A, 3B, 3C, and 3D are photographs that show the progression of an infected cut at 0 hours, 12 hours, 24 hours, and 36 hours, respectively.
FIGS. 4A, 4B, 4C, and 4D are photographs that show the progression of an infected cut at 0 hours, 12 hours, 24 hours, and 36 hours, respectively.
Chlorine Dioxide and CURAD Antibacterial Bandages (benzalkonium chloride) are used in this example. The first of two infected cuts is exposed to 100 ppm of chlorine dioxide for 1 minute before the benzalkonium chloride bandage is applied. The second infected cut is not exposed to chlorine dioxide before the benzalkonium chloride bandage is applied. Both cuts are retreated every 12 hours. […] FIG. 4 illustrates that after 36 hours the second cut's infection, not treated with chlorine dioxide, actually increases.

| Compound | progress of the cut's infection (FIG. 3) (infected cut exposed to 100 ppm chlorine dioxide for 1 minute before benzalkonium chloride bandage) | progress of the cut's infection (FIG. 4) (infected cut with benzalkonium chloride bandage only, no chlorine dioxide) |
| --- | --- | --- |
| [O][Cl+][O-] [chlorine dioxide] | significantly reduced |  |
| benzalkonium chloride |  | no apparent effect |
